Measurements reported in patent US20250059171A1 (Hoffmann-La Roche Inc., priority 2021, published 2025).

How the values were obtained:
HCoV-229E 3CLpro = HCoV-229E 3CLpro (Human coronavirus 229E, UniProt P0C6X1); assay: HCoV-229E 3CLpro inhibition assay (FRET); type: biochemical
SARS-CoV 3CLpro = SARS-CoV 3CLpro (Severe acute respiratory syndrome coronavirus, UniProt P0C6X7); assay: biochemical
MERS-CoV 3CLpro = MERS-CoV 3CLpro (Middle East respiratory syndrome-related coronavirus, UniProt K9N7C7); assay: biochemical
SARS-CoV-2 3CLpro = SARS-CoV-2 3CLpro (Severe acute respiratory syndrome coronavirus 2, UniProt P0DTD1); assay: biochemical

Chain of MERS-CoV 3CLpro (K9N7C7 3248-3553): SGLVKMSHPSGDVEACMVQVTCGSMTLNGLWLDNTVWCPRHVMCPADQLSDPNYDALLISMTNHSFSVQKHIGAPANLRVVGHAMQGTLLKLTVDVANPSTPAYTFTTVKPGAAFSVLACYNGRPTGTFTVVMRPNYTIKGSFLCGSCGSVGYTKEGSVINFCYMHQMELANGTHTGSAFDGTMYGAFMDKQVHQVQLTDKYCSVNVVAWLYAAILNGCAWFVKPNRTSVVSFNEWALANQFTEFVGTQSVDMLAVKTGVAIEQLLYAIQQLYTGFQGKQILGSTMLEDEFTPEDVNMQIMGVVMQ
Chain of HCoV-229E 3CLpro (P0C6X1 2966-3267): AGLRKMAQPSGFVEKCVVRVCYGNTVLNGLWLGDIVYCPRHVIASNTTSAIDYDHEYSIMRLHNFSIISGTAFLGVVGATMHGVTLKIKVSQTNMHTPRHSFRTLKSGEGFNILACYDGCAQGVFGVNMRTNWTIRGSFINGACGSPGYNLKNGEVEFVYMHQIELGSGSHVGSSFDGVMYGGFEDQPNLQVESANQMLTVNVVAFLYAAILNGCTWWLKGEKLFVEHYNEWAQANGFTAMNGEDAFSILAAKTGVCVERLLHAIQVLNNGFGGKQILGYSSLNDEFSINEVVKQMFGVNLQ

| SMILES | IC50 (HCoV-229E 3CLpro) | IC50 (SARS-CoV 3CLpro) | IC50 (MERS-CoV 3CLpro) | IC50 (SARS-CoV-2 3CLpro) |
| --- | --- | --- | --- | --- |
| CC(C)(C)[C@H](NC(=O)C1CC1(F)F)C(=O)N1C[C@@H]2CCC[C@@H]2[C@H]1C(=O)NN(C[C@@H]1CCNC1=O)C(=O)[C@H](F)Cl (mixture of isomers) [Example 34, Rac-2,2-difluoro-N-[(1S)-2,2-dimethyl-1-[(3S,3aS,6aR)-3-[[[(2R)-2-chloro-2-fluoro-acetyl]-[[(3S)-2-oxopyrrolidin-3-yl]methyl]amino]carbamoyl]-3,3a,4,5,6,6a-hexahydro-1H-cyclopenta[c]pyrrole-2-carbonyl]propyl]cyclopropanecarboxamide] | 23 nM | 12 nM | 66 nM | 8 nM |
| CC(F)C(=O)N[C@H](C(=O)N1C[C@@H]2CCC[C@@H]2[C@H]1C(=O)NN(C[C@@H]1CCNC1=O)C(=O)[C@H](F)Cl)C(C)(C)C (mixture of isomers) [Example 36, Rac-2-fluoro-N-[(1S)-2,2-dimethyl-1-[(3S,3aS,6aR)-3-[[[(2R)-2-chloro-2-fluoro-acetyl]-[[(3S)-2-oxopyrrolidin-3-yl]methyl]amino]carbamoyl]-3,3a,4,5,6,6a-hexahydro-1H-cyclopenta[c]pyrrole-2-carbonyl]propyl]propanamide] | 34 nM | 12 nM | 93 nM | 7 nM |
| CC[C@H](C)[C@H](NC(=O)C1CC1(F)F)C(=O)N1C[C@@H]2CCC[C@@H]2[C@H]1C(=O)NN(C[C@@H]1CCNC1=O)C(=O)[C@H](F)Cl (mixture of isomers) [Example 41, Rac-2,2-difluoro-N-[(1S,2S)-2-methyl-1-[(3S,3aS,6aR)-3-[[[(2R)-2-chloro-2-fluoro-acetyl]-[[(3S)-2-oxopyrrolidin-3-yl]methyl]amino]carbamoyl]-3,3a,4,5,6,6a-hexahydro-1H-cyclopenta[c]pyrrole-2-carbonyl]butyl]cyclopropanecarboxamide] | 68 nM | 33 nM | 221 nM | 7 nM |
| CC[C@H](C)[C@H](NC(=O)C(C)F)C(=O)N1C[C@@H]2CCC[C@@H]2[C@H]1C(=O)NN(C[C@@H]1CCNC1=O)C(=O)[C@H](F)Cl (mixture of isomers) [Example 43, Rac-2-fluoro-N-[(1S,2S)-2-methyl-1-[(3S,3aS,6aR)-3-[[[(2R)-2-chloro-2-fluoro-acetyl]-[[(3S)-2-oxopyrrolidin-3-yl]methyl]amino]carbamoyl]-3,3a,4,5,6,6a-hexahydro-1H-cyclopenta[c]pyrrole-2-carbonyl]butyl]propanamide] | 22 nM | 11 nM | 58 nM | 8 nM |
| CC[C@H](C)[C@H](NC(=O)C(F)(F)C(F)(F)F)C(=O)N1C[C@@H]2CCC[C@@H]2[C@H]1C(=O)NN(C[C@@H]1CCNC1=O)C(=O)[C@H](F)Cl [Example 50, N-[(1S,2S)-1-[(3S,3aS,6aR)-3-[[[(2R)-2-chloro-2-fluoro-acetyl]-[[(3S)-2-oxopyrrolidin-3-yl]methyl]amino]carbamoyl]-3,3a,4,5,6,6a-hexahydro-1H-cyclopenta[c]pyrrole-2-carbonyl]-2-methyl-butyl]-2,2,3,3,3-pentafluoro-propanamide] | 17 nM | 8 nM | 42 nM | – |
| CCC(CC)[C@H](NC(=O)C(F)(F)F)C(=O)N1C[C@H]2[C@@H]([C@H]1C(=O)NN(C[C@@H]1CCNC1=O)C(=O)[C@H](F)Cl)C2(C)C [Example 84, N-[(1S)-1-[(1R,2S,5S)-2-[[[(2R)-2-chloro-2-fluoro-acetyl]-[[(3S)-2-oxopyrrolidin-3-yl]methyl]amino]carbamoyl]-6,6-dimethyl-3-azabicyclo[3.1.0]hexane-3-carbonyl]-2-ethyl-butyl]-2,2,2-trifluoro-acetamide] | 30 nM | 14 nM | 87 nM | – |
